Results taken from patent publication US20260297121A1, “MITHRAMYCIN (MTM) 2’ OXIMES” (University of Kentucky Research Foundation, priority 2023, published 2026).

Key:
log P = assay type: physicochemical
TC32 cells = test: Potency IC50 in TC32 cells and selectivity; assay type: cell-based; conditions: Homo sapiens, TC-32, Table 2, read-out: IC50 TC32
Experimental: (§1) Exemplary compounds of the presently-disclosed subject matter were assessed for activity, including clearance, potency, and selectivity. Results from studies are compiled in Tables 2-4.
(§2) Desirable clearance was identified at lower values of mL hr^−1kg^−1 (e.g., about ≤10 mL hr^−1 kg^−1), desirable potency was identified at lower values of IC50 (e.g., about ≤10 nM in TC32 cells), and desired selectivity was identified at higher ratios of IC50 in PC3/IC50 in TC32 (e.g. about >10).

PC3 = test: IC50 in PC3 cells; assay type: cell-based; conditions: Homo sapiens, PC-3, read-out: IC50 PC2, Table 2; head prints PC2, text PC3
Experimental: as §1, §2

| Compound | log P (log P; Table 2) | also measured |
| --- | --- | --- |
| CO[C@H](C(=NOCCNC(=O)c1c(-c2ccc(Cl)cc2)c2cc(Cl)ccc2n1C)[C@@H](O)[C@@H](C)O)[C@@H]1Cc2cc3cc(O[C@H]4C[C@@H](O[C@H]5C[C@@H](O)[C@H](O)[C@@H](C)O5)[C@H](O)[C@@H](C)O4)c(C)c(O)c3c(O)c2C(=O)[C@H]1O[C@H]1C[C@@H](O[C@H]2C[C@@H](O[C@H]3C[C@](C)(O)[C@H](O)[C@@H](C)O3)[C@@H](O)[C@@H](C)O2)[C@H](O)[C@@H](C)O1 [YL-C98] | 4.6 | – |
| COC(C(=NOCC(Cc1c[nH]c2ccccc12)NC(=O)c1cc2cc(Cl)ccc2[nH]1)C(O)C(C)O)C1Cc2cc3cc(OC4CC(OC5CC(O)C(O)C(C)O5)C(O)C(C)O4)c(C)c(O)c3c(O)c2C(=O)C1OC1CC(OC2CC(OC3CC(C)(O)C(O)C(C)O3)C(O)C(C)O2)C(O)C(C)O1 (centres unmarked) [YL-C54] | 4.34 | – |
| CO[C@H](C(=NOCCNC(=O)c1[nH]c2ccc(Cl)cc2c1C1CC1)[C@@H](O)[C@@H](C)O)[C@@H]1Cc2cc3cc(O[C@H]4C[C@@H](O[C@H]5C[C@@H](O)[C@H](O)[C@@H](C)O5)[C@H](O)[C@@H](C)O4)c(C)c(O)c3c(O)c2C(=O)[C@H]1O[C@H]1C[C@@H](O[C@H]2C[C@@H](O[C@H]3C[C@](C)(O)[C@H](O)[C@@H](C)O3)[C@@H](O)[C@@H](C)O2)[C@H](O)[C@@H](C)O1 [YL-C124] | – | IC50 (TC32 cells): 0.0224 µM; logP (log P; Table 2): 3.06; IC50 (PC3): 0.169 µM |
| COC(C(=NOCCNC(=O)c1cc2cc(O)ccc2[nH]1)C(O)C(C)O)C1Cc2cc3cc(OC4CC(OC5CC(O)C(O)C(C)O5)C(O)C(C)O4)c(C)c(O)c3c(O)c2C(=O)C1OC1CC(OC2CC(OC3CC(C)(O)C(O)C(C)O3)C(O)C(C)O2)C(O)C(C)O1 (centres unmarked) [YL-B170] | – | IC50 (TC32 cells): 0.0707 µM; logP (log P; Table 2): 1.02; IC50 (PC3): 0.365 µM |
| COC(C(=NOCC(Cc1c[nH]c2ccccc12)NC(=O)c1ccc2scnc2c1)C(O)C(C)O)C1Cc2cc3cc(OC4CC(OC5CC(O)C(O)C(C)O5)C(O)C(C)O4)c(C)c(O)c3c(O)c2C(=O)C1OC1CC(OC2CC(OC3CC(C)(O)C(O)C(C)O3)C(O)C(C)O2)C(O)C(C)O1 (centres unmarked) [YL-C55] | 3.26 | – |
| COC(C(=NOCCNC(=O)c1[nH]c2ccc(Cl)cc2c1-c1ccc(F)c(Cl)c1)C(O)C(C)O)C1Cc2cc3cc(OC4CC(OC5CC(O)C(O)C(C)O5)C(O)C(C)O4)c(C)c(O)c3c(O)c2C(=O)C1OC1CC(OC2CC(OC3CC(C)(O)C(O)C(C)O3)C(O)C(C)O2)C(O)C(C)O1 (centres unmarked) [YL-C116] | 4.19 | log P (log P; Table 3): 4.19 |
| CO[C@H](C(=NOC[C@@H](Cc1c[nH]c2ccccc12)NC(=O)c1ccc2scnc2c1)[C@@H](O)[C@@H](C)O)[C@@H]1Cc2cc3cc(O[C@H]4C[C@@H](O[C@H]5C[C@@H](O)[C@H](O)[C@@H](C)O5)[C@H](O)[C@@H](C)O4)c(C)c(O)c3c(O)c2C(=O)[C@H]1O[C@H]1C[C@@H](O[C@H]2C[C@@H](O[C@H]3C[C@](C)(O)[C@H](O)[C@@H](C)O3)[C@@H](O)[C@@H](C)O2)[C@H](O)[C@@H](C)O1 [YL-C53] | 3.26 | – |
| CO[C@H](C(=NOCC(=O)N[C@@H](Cc1c[nH]c2ccccc12)C(=O)Nc1ccc2scnc2c1)[C@@H](O)[C@@H](C)O)[C@@H]1Cc2cc3cc(O[C@H]4C[C@@H](O[C@H]5C[C@@H](O)[C@H](O)[C@@H](C)O5)[C@H](O)[C@@H](C)O4)c(C)c(O)c3c(O)c2C(=O)[C@H]1O[C@H]1C[C@@H](O[C@H]2C[C@@H](O[C@H]3C[C@](C)(O)[C@H](O)[C@@H](C)O3)[C@@H](O)[C@@H](C)O2)[C@H](O)[C@@H](C)O1 [YL-C39] | 2.56 | – |
| COC(C(=NOCCNC(=O)c1c(-c2ccc(Cl)cc2)c2cc(Cl)ccc2n1CC(C)C)C(O)C(C)O)C1Cc2cc3cc(OC4CC(OC5CC(O)C(O)C(C)O5)C(O)C(C)O4)c(C)c(O)c3c(O)c2C(=O)C1OC1CC(OC2CC(OC3CC(C)(O)C(O)C(C)O3)C(O)C(C)O2)C(O)C(C)O1 (centres unmarked) [YL-C100] | 6.21 | – |
